This is an account of results in ChEMBL document CHEMBL4033800, “Further Developments of the Phenyl-Pyrrolyl Pentane Series of Nonsteroidal Vitamin D Receptor Modulators as Anticancer Agents” (J Med Chem, 2018).

In general, IC50 refers to the point on the concentration scale where inhibition reaches its midpoint.

The test system of experiment [1] is HepG2. Nature of the experiment: Antiproliferative activity against human HepG2 cells after 48 hrs by MTT assay. It is filed as functional, cell-based. The settings on record: HepG2, 48 h.
Experiment [2] concerns L02. Nature of the experiment: Antiproliferative activity against human L02 cells after 48 hrs by MTT assay. It is filed as cell-based. The settings on record: L02, 48 h. For orientation: Formazan colour is commonly taken as a measure of viable cells.
The test system of experiment [3] is MCF7. Nature of the experiment: Antiproliferative activity against human MCF7 cells after 48 hrs by MTT assay. The settings on record: MCF7, 48 h. It is filed as functional, cell-based.
Experiment [4] has as its system PC-3. Kind of experiment: Antiproliferative activity against human PC3 cells after 48 hrs by MTT assay. It counts as functional, cell-based. The settings on record: PC-3, 48 h.
In experiment [5] the test system is Caco-2. Nature of the experiment: Antiproliferative activity against human Caco2 cells after 48 hrs by MTT assay. The settings on record: Caco-2, 48 h. It is filed as functional, cell-based.
Experiment [6] addresses T1, Vitamin D3 receptor (Homo sapiens, UniProt P11473).
T1 sequence (P11473 whole entry): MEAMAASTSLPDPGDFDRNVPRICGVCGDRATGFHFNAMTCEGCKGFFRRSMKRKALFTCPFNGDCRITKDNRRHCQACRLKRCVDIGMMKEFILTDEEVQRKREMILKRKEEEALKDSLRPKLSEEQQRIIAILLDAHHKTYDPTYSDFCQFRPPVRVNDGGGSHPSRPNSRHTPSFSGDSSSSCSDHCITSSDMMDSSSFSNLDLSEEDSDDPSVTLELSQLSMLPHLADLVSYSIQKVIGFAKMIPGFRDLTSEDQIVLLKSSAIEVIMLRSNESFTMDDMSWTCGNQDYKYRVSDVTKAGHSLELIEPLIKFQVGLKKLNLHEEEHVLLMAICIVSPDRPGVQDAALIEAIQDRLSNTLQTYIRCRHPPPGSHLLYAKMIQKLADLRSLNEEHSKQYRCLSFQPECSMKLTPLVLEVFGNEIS
Nature of the experiment: Displacement of fluormone VDR red from human full length VDR after 4 hrs by fluorescence polarization assay. A general note: Polarisation of emitted light reports the rotation of a fluorescent probe.

In the case of `CCC(C)C(CO)NC(=O)c1ccc(C(CC)(CC)c2ccc(OCCC(O)(CC)CC)c(C)c2)n1CC` (stereo unspecified), the IC50 in experiment [1] was over 50 µM; in experiment [2] it was over 50 µM; in experiment [3], 29.1 µM; in experiment [4], 28.4 µM; in experiment [5] it was over 50 µM.
As to `CCC(C)C(NC(=O)c1ccc(C(CC)(CC)c2ccc(OCCC(O)(CC)CC)c(C)c2)n1CC)C(=O)O` (stereo unspecified), the IC50 came to 2.62 µM in experiment [1]; 9.99 µM in experiment [2]; 11.3 µM in experiment [3]; 13.8 µM in experiment [4]; 20 µM in experiment [5].
Taken in the same sequence, the figures for `C#CCCOC(=O)c1ccc(C(CC)(CC)c2ccc(OCCC(O)(CC)CC)c(C)c2)n1CC` were over 50 µM, over 50 µM, over 50 µM, over 50 µM and over 50 µM.
Taken in the same sequence, the figures for `CCn1c(C(=O)NCCCN(C)C)ccc1C(CC)(CC)c1ccc(OCCC(O)(CC)CC)c(C)c1` were 0.11 µM, 2.42 µM, 3.35 µM, 2.15 µM and 0.49 µM.
In the same order, the values of `C#CC(C)OC(=O)c1ccc(C(CC)(CC)c2ccc(OCCC(O)(CC)CC)c(C)c2)n1CC` (stereo unspecified) are over 50 µM, over 50 µM, over 50 µM, 14.8 µM and over 50 µM.
Regarding `CCn1c(C(=O)NCC#N)ccc1C(CC)(CC)c1ccc(OCCC(O)(CC)CC)c(C)c1`, the IC50 in experiment [6] is 0.825 µM; in experiment [1], over 50 µM; in experiment [2], over 50 µM; in experiment [3] it was over 50 µM; in experiment [4], 17.8 µM; in experiment [5] it was over 50 µM.
